{"source": "paper PMC6863955", "about": "“Quantitation of a Novel Engineered Anti-infective Host Defense Peptide, ARV-1502: Pharmacokinetic Study of Different Doses in Rats and Dogs” (Frontiers in Chemistry, 2019)", "key": {"[1]": {"test": "in vivo", "settings": "Beagle, dog", "protocol": "(§1) The objective of the study conducted at ITR Laboratories Canada Inc (Baie d'Urfe, Quebec, Canada) was to determine the pharmacokinetic profile of ARV-1502 following single intravenous or intramuscular injection administration to Sprague-Dawley rats and Beagle dogs.\n(§2) For the dog study, ARV-1502 was administered once IM (divided equally over 2 sites) and once IV (1 week apart) as detailed in Table 2. Following dosing, blood was collected at the same time points noted above for the rat study.\n(§3) Aliquots of rat or Beagle plasma (20 μL) were spiked with standard peptide Onc72 (0.35 μg/mL plasma, 1.2 μL). Samples were diluted with aqueous TFA in two steps (0.2% v/v, 20 μL and 0.1% v/v, 260 μL) and loaded on an Oasis HLB 96-well-SPE-plate (5 mg sorbent per well, Waters). The samples were washed twice with aqueous TFA (0.1% v/v, 1 mL) and eluted in two steps with aqueous acetonitrile (30% v/v, 150 μL) containing formic acid (0.1% v/v). The fractions were dried in a vacuum centrifuge (SpeedVac, 60°C), reconstituted with aqueous methanol (75% v/v, 20 μL) containing formic acid (0.1% v/v), and diluted with aqueous acetonitrile (3% v/v, 100 μL) containing formic acid (0.1%).\n(§4) A quadrupole-Orbitrap mass spectrometer (Q Exactive plus™, Thermo Scientific) was coupled online to an uHPLC (Vanquish™, Thermo Scientific). Separation was achieved on a Jupiter C18 column (inner diameter: 1 mm, length: 150 mm, particle size: 5 μm, pore size: 130 Å, Phenomenex Ltd.) at 55°C using a flow rate of 200 μL/min and a linear gradient of 3 to 23% (v/v) aqueous acetonitrile containing formic acid (0.1%) within 5 min.\n(§5) ARV-1502 was quantitated by the peak area of an extracted ion chromatogram (XIC) obtained from the MS/MS using Xcalibur 4.0.27.21 software. The peak area of ARV-1502 corrected by using the peak area of Onc72."}, "[2]": {"test": "in vivo", "settings": "Sprague-Dawley, rat; for level at 0.5 h: plasma concentration after 30 min", "protocol": "(§6) A series of eight blood samples (~0.5 mL each) was collected in rats on Day 1. Following IM administration, the blood was collected at 5, 15, 30, and 45 min and at 1, 1.5, 2, and 3-h post-dose. After IV administration, blood was collected at 2, 5, 15, 30, and 45 min and at 1, 1.5, and 2-h post-dose. Animals were euthanized after the last blood collection by carbon dioxide asphyxiation followed by cervical dislocation and discarded without further examination. Safety parameters monitored on the study were mortality and clinical signs. Body weights (BW) were recorded to calculate the dose only. Blood sampling was performed for pharmacokinetic evaluation.\nas §3, §4\n(§7) Pharmacokinetic datasets were evaluated with a PKSolver add-in for Microsoft Excel using a non-compartmental analysis (Zhang et al., [2010])."}, "[3]": {"settings": "rat, in vivo", "protocol": "as §6, §3, §4, §7"}, "[4]": {"settings": "dog, in vivo", "protocol": "as §1, §2, §3, §4, §5"}}, "note": "Where two headings read alike, the source gives them in different places. Non-standard residues stand in square brackets, D forms with d. Residues, ends and D or L forms follow the SMILES beside them. Ac6c = NC1(C(=O)O)CCCCC1", "data": [{"smiles": "CC(C)C[C@H](NC(=O)[C@H](Cc1ccc(O)cc1)NC(=O)[C@@H]1CCCN1C(=O)[C@H](CCCNC(=N)N)NC(=O)[C@@H]1CCCN1C(=O)[C@H](CCCCN)NC(=O)[C@H](CC(=O)O)NC(=O)[C@@H]1CCCN1C(=O)[C@H](CCCNC(=N)N)NC(=O)C1(N)CCCCC1)C(=O)N1CCC[C@H]1C(=O)N[C@@H](CCCNC(=N)N)C(=O)N1CCC[C@H]1C(=O)N[C@@H](CCCNC(=N)N)C(=O)N1CCC[C@H]1C(=O)N1CCC[C@H]1C(=O)N[C@@H](CCCNC(=N)N)C(=O)N1CCC[C@H]1C(=O)N[C@H](C(=O)N[C@@H](CCCNC(=N)N)C(N)=O)C(C)C", "note": "[ARV-1502, Chex1-Arg20 amide] (H-[Ac6c]RPDKPRPYLPRPRPPRPVR-NH2)", "values": [{"measurement": "half-life", "setting": "[1]; im", "result": 15.8, "unit": "min"}, {"measurement": "Vd", "setting": "[1]; im, 0.75 mg/kg", "result": 8.14, "unit": "L"}, {"measurement": "C0", "setting": "[1]; iv, 0.075 mg/kg", "result": 1.04, "unit": "µg/mL"}, {"measurement": "Cmax", "setting": "[1]; iv, 0.075 mg/kg", "result": 0.7, "unit": "µg/mL"}, {"measurement": "MRT", "setting": "[1]; iv, 0.075 mg/kg", "result": 7.07, "unit": "min"}, {"measurement": "Vd", "setting": "[1]; iv, 0.075 mg/kg", "result": 0.735, "unit": "L"}, {"measurement": "half-life", "setting": "[1]; iv, 0.075 mg/kg", "result": 7.6, "unit": "min"}, {"measurement": "Cmax", "setting": "[1]; male, im, 0.75 mg/kg", "result": 1, "unit": "µg/mL"}, {"measurement": "Tmax", "setting": "[1]; male, im, 0.75 mg/kg", "result": 15, "unit": "min"}, {"measurement": "level at 5 min", "setting": "[1]; male, im, 0.75 mg/kg, plasma concentration at 5 min", "result": "0.94 ± 0.28", "unit": "µg/mL"}, {"measurement": "level at 0.25 h", "setting": "[1]; male, im, 0.75 mg/kg, plasma concentration at 15 min", "result": "1.1 ± 0.2", "unit": "µg/mL"}, {"measurement": "AUC(0-inf)", "setting": "[1]; male, iv, 0.075 mg/kg", "result": 0.144, "unit": "µg·h/mL"}, {"measurement": "level at 2 min", "setting": "[1]; male, iv, 75 ug/kg, plasma concentration 2 min after administration", "result": 0.7, "unit": "µg/mL"}, {"measurement": "level at 0.5 h", "setting": "[1]; male, iv, 75 ug/kg, plasma concentration after 30 min", "result": "0.0076 ± 0.0013", "unit": "µg/mL"}, {"measurement": "half-life", "setting": "[2]; im", "result": 24.2, "unit": "min"}, {"measurement": "MRT", "setting": "[2]; iv, 0.25 mg/kg", "result": 6.22, "unit": "min"}, {"measurement": "half-life", "setting": "[2]; iv, 0.25 mg/kg", "result": 15.4, "unit": "min"}, {"measurement": "Cmax", "setting": "[2]; both, im, 2.5 mg/kg", "result": 12, "unit": "µg/mL"}, {"measurement": "Tmax", "setting": "[2]; both, im, 2.5 mg/kg", "result": 15, "unit": "min"}, {"measurement": "level at 5 min", "setting": "[2]; both, im, 2.5 mg/kg, plasma concentration after 5 min", "result": "11 ± 3.3", "unit": "µg/mL"}, {"measurement": "level at 0.5 h", "setting": "[2]; both, im, 2.5 mg/kg", "result": "~0.9", "unit": "µg/mL"}, {"measurement": "level at 3 h", "setting": "[2]; both, im, 2.5 mg/kg, plasma concentration within 3 h", "result": 0.016, "unit": "µg/mL"}, {"measurement": "AUC(0-inf)", "setting": "[2]; both, iv, 0.25 mg/kg", "result": 0.521, "unit": "µg·h/mL"}, {"measurement": "Cmax", "setting": "[2]; both, iv, 0.25 mg/kg", "result": 3.41, "unit": "µg/mL"}, {"measurement": "Tmax", "setting": "[2]; both, iv, 0.25 mg/kg", "result": 2, "unit": "min"}, {"measurement": "level at 0.5 h", "setting": "[2]; both, iv, 0.25 mg/kg", "result": "0.0642 ± 0.0073", "unit": "µg/mL"}, {"measurement": "level at 2 h", "setting": "[2]; both, iv, 0.25 mg/kg, plasma concentration after 2 h", "result": "0.002 to 0.004", "unit": "µg/mL"}, {"measurement": "level at 5 min", "setting": "[2]; female, im, 2.5 mg/kg, plasma concentration after 5 min (initial peptide level)", "result": "13.8 ± 1.9", "unit": "µg/mL"}, {"measurement": "level at 0.25 h", "setting": "[2]; female, im, 2.5 mg/kg, plasma concentration at 15 min", "result": "19 ± 4.9", "unit": "µg/mL"}, {"measurement": "level at 5 min", "setting": "[2]; male, im, 2.5 mg/kg, plasma concentration after 5 min (initial peptide level)", "result": "8.2 ± 1.4", "unit": "µg/mL"}, {"measurement": "level at 0.5 h", "setting": "[2]; male, im, 2.5 mg/kg", "result": 1, "unit": "µg/mL"}, {"measurement": "plasma concentration after 2 h", "setting": "[3]; both, Sprague-Dawley, iv, 0.25 mg/kg, 2 h", "result": "0.0022 ± 0.0004", "unit": "µg/mL"}, {"measurement": "Cmax extrapolated in proportion to dose", "setting": "[3]", "result": "~ 34 μg/mL"}, {"measurement": "volume of distribution after IM, fold higher than after IV", "setting": "[3]", "result": "more than 4 fold"}, {"measurement": "AUMC0→∞", "setting": "[3]; iv, 0.25 mg/kg", "result": 194.6, "unit": "μg·min^2/mL"}, {"measurement": "k", "setting": "[3]; iv, 0.25 mg/kg", "result": 0.045, "unit": "min⁻¹"}, {"measurement": "plasma concentration lower in male rats than in female rats", "setting": "[3]; iv, 0.25 mg/kg", "result": "around 25%"}, {"measurement": "volume of distribution as share of the theoretical circulating blood volume", "setting": "[3]; iv, 0.25 mg/kg", "result": 85, "unit": "%"}, {"measurement": "clearance rate in dogs relative to the rate in rats", "setting": "[4]", "result": "around half"}, {"measurement": "volume of distribution after IM, fold larger than the BV", "setting": "[4]", "result": "more than 9 fold"}, {"measurement": "AUMC0→∞", "setting": "[4]; iv, 0.075 mg/kg", "result": 820.3, "unit": "μg·min^2/mL"}, {"measurement": "k", "setting": "[4]; iv, 0.075 mg/kg", "result": 0.09, "unit": "min⁻¹"}, {"measurement": "volume of distribution as share of circulating blood volume (BV)", "setting": "[4]; iv, 0.075 mg/kg", "result": "~ 84%"}, {"measurement": "plasma concentration 2 min after administration", "setting": "[4]; male, Beagle, iv, 75 ug/kg, 2 min", "result": "0.69 ± 0.15", "unit": "µg/mL"}]}]}
